logP | Structure (SMILES)
2.65 | CCCNC(=O)c1cc2ccccc2o1
3.05 | CCOC(=O)c1cc2ccccc2o1
1.9 | CNC(=O)c1cc2ccccc2[nH]1
1.25 | CCCNC(=O)c1ccc[nH]1
1.62 | CCNC(=O)c1c[nH]c2ccccc12
1.25 | CNC(=O)c1c[nH]c2ccccc12
2.22 | CCNC(=O)c1cc2ccccc2o1
1.85 | CNC(=O)c1cc2ccccc2o1
3.22 | CCOC(=O)c1cc2ccccc2[nH]1
2.32 | CCNC(=O)c1cc2ccccc2[nH]1
2.8 | CCCNC(=O)c1cc2ccccc2[nH]1

Continued, molecule first:

Structure (SMILES) | logP
CCNC(=O)c1cccn1C | 1.09
Cn1cccc1C(N)=O | 0.45
CCOC(=O)c1ccc[nH]1 | 1.73
CCCNC(=O)c1ccoc1 | 1.2
CCNC(=O)c1ccc[nH]1 | 0.8
COC(=O)c1cccn1C | 1.8
CNC(=O)c1ccc[nH]1 | 0.42
CNC(=O)c1cccn1C | 0.71
NC(=O)c1ccc[nH]1 | 0.09
O=[N+]([O-])c1cncnc1 | -0.05
CCCNC(=O)c1cccn1C | 1.63
